Consider 6 compounds from publication PMC6269587 (Iranian Journal of Pharmaceutical Research : IJPR, 2018).

In general, IC50 refers to the midpoint of a concentration-inhibition curve. The low end stands for inhibition by little substance, the high end for a need for much substance.

The nature of experiment [1]: DPPH radical scavenging activity (antioxidant activity). The following applies: DPPH method, 30 min, 517 nm, triplicate. On the procedure:
The DPPH method is based on the free radical scavenging activity ([17]). briefly, 2 mL of DPPH solution in methanol (4×10^-5 g/mL) was prepared and added to 1 mL of different concentrations of sample solution in methanol (0.1, 0.5 and 1.0 mg/mL). The mixture was kept in the dark for 30 min at room temperature. The antioxidant activity was measured by Shimadzu, UV/VIS model 160A spectrophotometer at 517 nm.
All the measurements were done in triplicate. The IC50 values were calculated as means ± SD and butylated hydroxytoluene (BHT) was used as positive control.

Experiment [2] has as its target T1, Acetylcholinesterase (AChE) (Homo sapiens, UniProt P22303).
T1 construct: purchased Sigma (Germany)
The experiment can be described thus: biochemical. The following applies: for AChE Inhibitory IC50 ± SD: Ellman's method, 412 nm, 25 °C, pH 8.0. The protocol:
AChE inhibitory effect of petroleum ether, chloroform, ethyl acetate, and methanol fractions were carried out by the Ellman′s method ([16]).

Experiment [3] has as its system triple transgenic mice of Alzheimer's disease model. The following applies: cited from earlier work.
Another experiment has as its system brain cells. To be noted: mice; cited from earlier work.

Each structure is given as a SMILES string.

T1 sequence (P22303 32-614, species assumed): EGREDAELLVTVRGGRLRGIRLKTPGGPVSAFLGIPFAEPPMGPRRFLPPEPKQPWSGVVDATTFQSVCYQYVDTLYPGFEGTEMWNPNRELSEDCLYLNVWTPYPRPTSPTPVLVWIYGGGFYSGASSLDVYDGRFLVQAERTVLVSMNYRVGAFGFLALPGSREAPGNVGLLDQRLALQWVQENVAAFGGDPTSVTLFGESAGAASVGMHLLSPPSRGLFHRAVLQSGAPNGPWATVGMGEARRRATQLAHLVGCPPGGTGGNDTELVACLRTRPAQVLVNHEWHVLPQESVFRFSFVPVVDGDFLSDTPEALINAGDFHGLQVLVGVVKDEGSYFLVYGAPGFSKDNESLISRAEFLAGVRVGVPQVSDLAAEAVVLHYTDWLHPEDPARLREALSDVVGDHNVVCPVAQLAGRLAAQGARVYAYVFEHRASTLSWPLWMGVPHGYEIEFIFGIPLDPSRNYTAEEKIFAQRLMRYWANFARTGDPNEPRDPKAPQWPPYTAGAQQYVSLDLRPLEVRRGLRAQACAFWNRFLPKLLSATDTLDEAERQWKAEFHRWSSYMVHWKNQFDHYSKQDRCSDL

As to `O=c1c(O[C@@H]2O[C@H](CO)[C@@H](O)[C@H](O)[C@H]2O)c(-c2ccc(O)cc2)oc2cc(O)cc(O)c12` [Astragalin, astragalin], the “Antioxidant Activity IC50 ± SD” value in experiment [1] amounted to 26.92 ± 3.5 µg/mL. In addition, 162 µM corresponded to half-maximal inhibition in experiment [2] (IC50).

For the compound `Cc1cc(C(C)(C)C)c(O)c(C(C)(C)C)c1` [BHT, butylated hydroxytoluene, reference compound], the “Antioxidant Activity IC50 ± SD” value in experiment [1] was found to be 19.50 ± 2.8 µg/mL.

As for `O=C(O)/C=C/c1ccc(O)c(O)c1` [Caffeic acid], the “Antioxidant Activity IC50 ± SD” value in experiment [1] stood at 11.41 ± 6.0 µg/mL. The IC50 in experiment [2] is 66.9 µM.

`O=c1c(O)c(-c2ccc(O)c(O)c2)oc2cc(O)cc(O)c12` [Quercetin, quercetin]: in experiment [1], the “Antioxidant Activity IC50 ± SD” value worked out at 10.24 ± 1.3 µg/mL. Further, the IC50 in experiment [2] is 220 µM. Moreover, in experiment [3], the “effect on performance, emotional and cognitive behavior” value is “protective effects on performance, emotional and cognitive behavior have been confirmed”. Moreover, the neuroprotective effect result in the experiment on brain cells is listed as “strong protective effects of this compound on the brain cells”.

As for `O=C(O)c1ccccc1O` [Salicylic acid], in experiment [1], the “Antioxidant Activity IC50 ± SD” value turned out to be 114.57 ± 1.0 µg/mL. The “AChE Inhibitory IC50 ± SD” value in experiment [2] is on record as “-”.

As for `O=C(O)C=Cc1ccc(O)cc1` [p-Coumaric acid], in experiment [1], the “Antioxidant Activity IC50 ± SD” value was 110.33 ± 1.2 µg/mL. For the same compound, the “AChE Inhibitory IC50 ± SD” value in experiment [2] was “-”.
